Values of other authors, collected in patent publication US7232821B2, “(2-((2-alkoxy)-phenyl) -cyclopent-1enyl) aromatic carbo and heterocyclic acid and derivatives” (Glaxo Group Limited, priority 2002, dated 2007).

Key:
[1] = tested on: rat model of chronic constriction injury
[2] = tested on: rodent model of post-operative pain

SMILES: Cc1cc(Cl)ccc1S(=O)(=O)NC[C@H]1C2CCC(CC2)[C@@H]1/C=C\CCCC(=O)O [ONO-8711]
- hyperalgesia and allodynia [1]: reduces hyperalgesia and allodynia
- mechanical hyperalgesia [2]: inhibits mechanical hyperalgesia
